Experimental data published in patent US6780853B1, “Neuroactive steroids of the androstane and pregnane series” (priority 1995, dated 2004).
Marks after values point to notes of the source that are not given here.

Tests used:
punished responding = experiment: Geller-Seifter conflict test; type: in vivo, Sprague-Dawley rats
Description: This animal model of human anxiety utilizes a conditioned state of conflict in rats to ascertain the anxiolytic properties of drugs. Rats are conditioned to bar press for positive reinforcement under two schedules of behavior (Geller and Seifter, Psychopharmacologia 1:482-492 (1960)). The first includes bar pressing under a […] schedule without punishment. The second component is a fixed ratio schedule with each bar press resulting in a positive reinforcement and a punishment The punished component produces a state of conflict within the animal. […] An anxiolytic response would increase the punished responding without affecting the unpunished responding.
Male albino Sprague-Dawley rats (Charles River Labs, Wilmington, Mass.) weighing 250-300 g were used for conflict experiments and were kept on a restricted diet of Purina Lab Chow food pellets with water available at all times to maintain body weight at 85% of their free-feeding young adult levels. Rats were housed individually under a 12-hour light dark cycle with lights on from 0700-1900.
The ant-anxiety (punishment-lessening) and response depressant effects of compounds of the present invention were measured in rats by the conflict test of Geller and Seifter. In this 63-min test hungry rats perform a lever-press response to obtain a sweetened milk reward. The reinforcement schedule consists of punishment and nonpunishment components, alternating approximately every 15 min. Rats were trained in test chambers (Coulbourn instruments) with a lever mounted in one wall, a small dipper that delivered the 0.1-mL milk reward (1 part Eagle condensed milk:2 parts water), and a metal grid floor through which the foot-shock punishment was administered. A DEC PDP 11/73 minicomputer running SKED (State Systems) was used for programming and recording.
Rats initially learned to respond on a continuous reinforcement schedule and progressed rapidly to 30-sec, 1-min, and 2-min variable interval (VI) schedules. On the continuous reinforcement schedule, rats received milk reward following every lever press; on the VI schedules, milk rewards were available at infrequent and variable intervals, eventually at an average of once every 2 min. Four 3-min “conflict” periods were then introduced on the unpunished VI baseline; the first started after 3 min of VI performance and the others were alternated between 12-min periods of VI responding. During conflict periods, which were signalled by the presentation of a light and a tone, the continuous reinforcement schedule was again in force and each lever press delivered both a milk reward and a brief […] foot-shock punishment. […]

[1] = test system: time spent on the open-arms; experiment: Elevated plus-maze test; type: in vivo, N.I.H. Swiss-Webster mice; details: IP, 50% hpbcd, 10 mg/kg
Description: The theoretical basis for the elevated plus-maze test is similar to that of the fight/dark transition test. As it was described previously by Pellow et al. J. Neurosci. Meth. 14:149-167 (1985)), the elevated plus-maze apparatus is designed to utilize the mice's natural aversion to open spaces. The apparatus consists of two open-arms and two enclosed-arms. The elevated plus-maze test allows for two measures of anxiety, the number of entries into the open-arms and the time spent on the open-arms, both expressed as a percentage of the total number of entries and time spent in/on both the open-arms and enclosed-arms.
Male N.I.H Swiss-Webster mice (Harlan, Indianapolis, Ind.) weighing 15-20 g were housed four per cage in polyethylene cages with sawdust bedding. The colony room was environmentally controlled (22° C.) with a 12 hr light/dark cycle (0600-1800 hr). Food and water were available ad libitum, except during testing. The experiments were run from 0700-1500 hr and groups were counterbalanced for time of day effects. Mice were only administered drug or vehicle once.
The method used was previously described (Lister, Psychopharmacol. 92:180-185 (1987)). The apparatus included two open arms perpendicular to two enclosed arms elevated 50 cm from the floor. Each arm was 50 cm long and the walls of the enclosed arms were 40 cm tall. The maze was made completely of black plexiglass. Incandescent 200 W light bulbs were above each of the open arms to produce a strong contrast between the open arms and the enclosed arms.
[…] Swiss-Webster mice were placed in the center of the plus-maze facing an open arm. During the 5 min test period, the number of entries onto the open arms and the enclosed arms, and the time spent in the open arms and enclosed arms were measured. All four paws had to be within an arm for the dependent variable to be measured. Therefore, the time spent in the center of the maze is not counted, so the total time spent in the open arms and the enclosed arms may not equal 5 min.

loss-of-righting reflex = experiment: Anesthetic activity, loss-of-righting reflex; type: in vivo, mice; details: iv, 10 mg/kg
Procedure: The compounds of and used in the invention can also be used for anesthetic indications at high doses. However, the preferred route of administration to induce anesthesia is intravenous (i.v.) administration. In animals, a drug's anesthetic properties is measured by the drug's ability to produce a loss-of-righting reflex. The loss-of-righting reflex is defined as the inability of an animal to right itself within 30 seconds when placed on its back. Mice were administered drug i.v. in the lateral tail vein. Following administration, mice were placed on their backs and observed for loss-of-righting reflex.

[2] = target: GABA receptor complex (GRC); experiment: [35S]TBPS binding in rat cerebral cortex P2 homogenate; details: for IC50: concentration to inhibit 50% of control [35S]TBPS binding, 2 nM [35S]TBPS; for IMAX (maximum inhibition): maximum inhibition of [35S]TBPS binding
Procedure, shortened: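 Male Sprague-Dawley rat cortical P2 homogenate (0.5 mg protein) incubated with 2 nM [35S]TBPS in 50 mM Na/K phosphate pH 7.4, 200 mM NaCl, with GABA plus (+)bicuculline, 90 min at 25 °C. Filter-bound radioactivity counted; non-specific binding with […]; IC50 and maximal inhibition by nonlinear regression.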

[3] = test system: metrazol induced convulsions; experiment: Antimetrazol activity in mice; type: in vivo; details: 10 mg/kg, 50% hpbcd; for PTZ % Protected: i.p., 10 min; for % Protected: IP, 10 min before metrazol 85 mg/kg
Procedure, shortened: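 Mice dosed with test compounds at various doses 10 minutes before metrazol (85 mg/kg) injection. Each animal observed for 30 minutes, recording time to onset of myoclonus (forelimb clonic activity).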

[4] = test system: maximal electroshock tonic seizure; experiment: Maximal electroshock test; type: in vivo, mice; details: 20 mg/kg, i.p., 10 min, 50% hpbcd
Description: The anticonvulsant tests are similar to that described above.

[5] = data from Swinyard & Woodhead 1982; cited from earlier work

## CCOC[C@@]1(O)CC[C@@]2(C)[C@@H](CC[C@@H]3[C@@H]2CC[C@]2(C)[C@@H](C(C)=O)CC[C@@H]32)C1 [3α-Hydroxy-3β-ethoxymethyl-5α-pregnan-20-one]
Punished responding; IP, 50% hpbcd, 40 mg/kg
  Geller/Seifter (% or control): 3743 % or control

## COC[C@@]1(O)CC[C@@]2(C)[C@@H](CC[C@@H]3[C@@H]2CC[C@]2(C)[C@@H](C(C)=O)CC[C@@H]32)C1 [3α-Hydroxy-3β-methoxymethyl-5α-pregnan-20-one]
Punished responding; IP, 50% hpbcd, 10 mg/kg
  Geller/Seifter (% or control): 958 % or control

## COCC1(O)CCC2(C)C(CCC3C2CCC2(C)C(OC)CCC32)C1 (stereo not drawn) [3α-Hydroxy-17β-methoxy-3β-methoxymethyl-5α-androstane]
[1]
  Plus-Maze (% Control), time spent on the open-arms: 130 % Control
loss-of-righting reflex; 10% hpbcd
  Loss-of-Righting Reflex (%): 50%
[2]
  IC50: 64 nM
  IMAX (maximum inhibition): 100%
[3]
  PTZ % Protected: 87.5^c %
  % Protected: 87.5%
[4]
  MES % Protected: 18.7^b %

## CO[C@H]1CC[C@H]2[C@@H]3CC[C@@H]4C[C@H](O)CC[C@]4(C)[C@H]3CC[C@]12C [3α-Hydroxy-17β-methoxy-5β-androstane]
[1]
  Plus-Maze (% Control), time spent on the open-arms: 115 % Control
other
  melting point: 151 to 156 °C
[2]
  IC50: 62 nM
  IMAX (maximum inhibition): 106%
[3]
  PTZ % Protected: 87.5^c %
[4]
  MES % Protected: 87.5^b %

## COC1CCC2C3CCC4CC(O)(C#Cc5ccc(C(C)=O)cc5)CCC4C3CCC12C (stereo not drawn) [3β-(4′-Acetylphenylethynyl)-3α-hydroxy-17β-methoxy-19-nor-5β-androstane]
[1]
  Plus-Maze (% Control), time spent on the open-arms: 156 % Control
other
  melting point: 148 to 150 °C
[2]
  IC50: 8 nM
  IMAX (maximum inhibition): 96%
[3]
  PTZ % Protected: 12.5^c %
  % Protected: 31%
[4]
  MES % Protected: 25^b %

## C#C[C@@]1(O)CC[C@@]2(C)[C@H](CC[C@@H]3[C@@H]2CC[C@]2(C)[C@@H](OC)CC[C@@H]32)C1 [3β-ethynyl-3α-hydroxy-17β-methoxy-5β-androstane]
[1]
  Plus-Maze (% Control), time spent on the open-arms: 123 % Control
loss-of-righting reflex; 50% hpbcd
  Loss-of-Righting Reflex (%): 50%
[2]
  IC50: 49 nM
  IMAX (maximum inhibition): 101%
[3]
  PTZ % Protected: 50^c %
  % Protected: 50%
[4]
  MES % Protected: 31.2^b %

## CC(=O)C1CCC2C3CCC4CC(O)(C(F)(F)F)CCC4(C)C3C(N(C)C)CC12C (stereo not drawn) [11α-N,N-Dimethylamino-3α-hydroxy-3β-trifluoromethyl-5β-pregnan-20-one]
Punished responding; IP, citrate, 20 mg/kg
  Geller/Seifter (% or control): 145 % or control

## CCC1(c2ccccc2)C(=O)NC(=O)NC1=O [Phenobarbital]
[5]
  ED50 RR: 69 mg/kg

## COCC1(O)CCC2(C)C(CCC3C2CCC2(C)C(C(=O)CSS(=O)(=O)[O-])CCC32)C1.[Na+] (stereo not drawn) [Sodium S-(3α-hydroxy-3β-methoxymethyl-5α-pregnan-20-on-21-yl)thiosulfate]
Punished responding; PO, water, 32 mg/kg
  Geller/Seifter (% or control): 4487.5 % or control

## CCCC(CCC)C(=O)O [Valproate]
[5]
  ED50 RR: 514 mg/kg
